Results on 5 molecules are retold here after EP4806910A1, “TRI-AGONIST COMPOUND” (priority 2023, dated 2025).

The target of data set [1] is T1, GLP-1R (Homo sapiens, UniProt P43220).
T1 construct: expressed in transfected cells; host or cells: CHO-K1
Put plainly: GLP-1 activity test (cAMP, chemiluminescence). The data set is classed as cell-based. The protocol:
(§1) Upon stimulation by a specific agonist, GLP-1R activates the intracellular adenylate cyclase signaling pathway, resulting in an increase in cAMP levels and ultimately leading to insulin production and secretion. A cell line stably transfected with GLP-1R was stimulated with test compounds, thereby rapidly increasing intracellular cAMP levels. The relative luminescence units (RLU) of cells stimulated at various concentrations were measured by a chemiluminescence method, and the EC50 value of the agonist was calculated accordingly. This activity test method is currently a commonly used method for evaluating GLP-1 receptor agonist activity both domestically and internationally. A CHO-K1 cell line stably expressing GLP-1R was used. The stable cells were stimulated with agonists at different concentrations, and the relative luminescence units after stimulation at each concentration were measured to calculate the EC50 value of the agonist.

Data set [2] deals with T2, GCG-R (Homo sapiens, UniProt P47871).
T2 construct: expressed in transfected cells; host or cells: CHO-K1
The experiment in a line: GCG activity test (cAMP, chemiluminescence). Format: cell-based. The protocol:
Upon stimulation by a specific agonist, GCG-R activates the intracellular adenylate cyclase signaling pathway, resulting in an increase in cAMP levels and ultimately leading to insulin production and secretion. A cell line stably transfected with GCG-R was stimulated with test compounds, thereby rapidly increasing intracellular cAMP levels. The relative luminescence units (RLU) of cells stimulated at various concentrations were measured by a chemiluminescence method, and the EC50 value of the agonist was calculated accordingly. This activity assay method is currently a commonly used method for evaluating GCG receptor agonist activity both domestically and internationally.
A CHO-K1 cell line stably expressing GCG-R was used. The stable cells were stimulated with agonists at different concentrations, and the relative luminescence units after stimulation at each concentration were measured to calculate the EC50 value of the agonist.

The target in data set [3] is T3, GIPR (Homo sapiens, UniProt P48546).
T3 construct: expressed in transfected cells; host or cells: CHO-K1
T3 sequence (P48546 22-466): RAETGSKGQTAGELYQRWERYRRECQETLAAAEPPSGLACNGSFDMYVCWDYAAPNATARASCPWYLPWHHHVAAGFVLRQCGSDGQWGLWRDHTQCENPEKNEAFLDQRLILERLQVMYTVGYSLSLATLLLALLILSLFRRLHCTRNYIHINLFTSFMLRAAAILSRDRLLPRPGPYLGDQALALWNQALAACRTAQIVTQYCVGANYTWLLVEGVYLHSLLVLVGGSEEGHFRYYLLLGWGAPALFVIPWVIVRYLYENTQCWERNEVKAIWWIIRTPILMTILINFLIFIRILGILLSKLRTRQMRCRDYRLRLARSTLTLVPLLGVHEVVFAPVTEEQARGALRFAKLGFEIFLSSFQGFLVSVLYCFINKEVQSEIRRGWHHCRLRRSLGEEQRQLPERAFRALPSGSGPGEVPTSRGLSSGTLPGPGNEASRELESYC
The experiment in a line: GIP activity test (cAMP, chemiluminescence). Format: cell-based. The protocol: as §1, with “agonist, GIPR” for “agonist, GLP-1R”, “with GIPR” for “with GLP-1R”, “activity assay” for “activity test”, “evaluating GIP” for “evaluating GLP-1”, “expressing GIPR” for “expressing GLP-1R”

A short description of data set [4]: Preliminary pharmacokinetic evaluation, plasma concentration by LC-MS. Conditions: for half-life: cynomolgus monkey, male cynomolgus monkeys, subcutaneously (SC), 0.2 mg/kg, plasma; for half-lives: cynomolgus monkeys, administered subcutaneously. The data set is classed as in vivo, cynomolgus monkeys. The protocol:
The test animals were male cynomolgus monkeys. Two animals were used for each compound. The compounds were administered subcutaneously at a dose of 0.2 mg/kg. Blood samples were collected via intravenous sampling prior to administration (0 h) and at 1 h, 2 h, 3 h, 4 h, 8 h, 12 h, 18 h, 24 h, 48 h, 96 h, 144 h, and 168 h after administration. Plasma samples were obtained by centrifugation. The plasma concentrations of the compounds were respectively determined by liquid chromatography - mass spectrometry (LC-MS).

Like-named read-outs stand apart in the source and are kept apart here.

T2 sequence (P47871 26-477, species assumed): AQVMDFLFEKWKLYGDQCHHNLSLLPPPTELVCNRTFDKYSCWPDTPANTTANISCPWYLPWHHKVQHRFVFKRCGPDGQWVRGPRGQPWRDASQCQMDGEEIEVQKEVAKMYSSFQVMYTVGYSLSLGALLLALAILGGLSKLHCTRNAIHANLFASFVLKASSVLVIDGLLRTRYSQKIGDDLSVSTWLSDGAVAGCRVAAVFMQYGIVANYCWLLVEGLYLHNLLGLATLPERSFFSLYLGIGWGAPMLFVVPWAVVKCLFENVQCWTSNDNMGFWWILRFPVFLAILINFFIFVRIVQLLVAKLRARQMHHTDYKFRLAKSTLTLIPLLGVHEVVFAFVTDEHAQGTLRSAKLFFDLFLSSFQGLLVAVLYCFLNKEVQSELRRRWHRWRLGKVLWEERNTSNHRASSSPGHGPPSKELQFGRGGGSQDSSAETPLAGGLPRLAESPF
T1 sequence (P43220 24-463, species assumed): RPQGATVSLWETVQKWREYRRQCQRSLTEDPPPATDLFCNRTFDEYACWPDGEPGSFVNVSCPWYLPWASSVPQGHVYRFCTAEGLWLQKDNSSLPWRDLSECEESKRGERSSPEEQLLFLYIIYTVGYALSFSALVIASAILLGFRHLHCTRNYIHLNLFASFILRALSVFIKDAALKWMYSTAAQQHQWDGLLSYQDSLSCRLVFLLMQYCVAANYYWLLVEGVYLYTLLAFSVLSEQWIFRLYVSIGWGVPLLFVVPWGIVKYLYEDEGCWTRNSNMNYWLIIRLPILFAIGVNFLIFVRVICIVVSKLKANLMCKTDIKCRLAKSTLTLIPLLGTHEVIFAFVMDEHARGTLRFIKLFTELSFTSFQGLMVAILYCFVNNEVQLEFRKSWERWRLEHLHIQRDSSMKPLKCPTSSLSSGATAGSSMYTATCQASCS

On to `CC[C@H](C)[C@H](NC(=O)[C@H](Cc1ccccc1)NC(=O)[C@H](C)NC(=O)C(C)(C)NC(=O)[C@H](CCC(N)=O)NC(=O)[C@H](C)NC(=O)[C@H](CCCCNC(=O)COCCOCCNC(=O)CCC[C@H](NC(=O)CCCCCCCCCCCCCCCCCCC(=O)O)C(=O)O)NC(=O)[C@H](CCCCN)NC(=O)[C@H](CC(=O)O)NC(=O)[C@H](CC(C)C)NC(=O)C(C)(CC(C)C)NC(=O)[C@@H](NC(=O)[C@H](CO)NC(=O)[C@H](Cc1ccc(O)cc1)NC(=O)[C@H](CC(=O)O)NC(=O)[C@H](CO)NC(=O)[C@@H](NC(=O)C(C)(Cc1ccccc1)NC(=O)[C@@H](NC(=O)CNC(=O)[C@H](CCC(N)=O)NC(=O)C(C)(C)NC(=O)[C@@H](N)Cc1ccc(O)cc1)[C@@H](C)O)[C@@H](C)O)[C@@H](C)CC)C(=O)N[C@@H](CCC(=O)O)C(=O)N[C@@H](Cc1ccc(O)cc1)C(=O)N[C@@H](CC(C)C)C(=O)N[C@@H](CC(C)C)C(=O)N[C@@H](CCC(=O)O)C(=O)NCCCCC(=O)N1CCC[C@H]1C(=O)N[C@@H](CO)C(=O)N[C@@H](CO)C(=O)NCC(=O)N[C@@H](C)C(=O)N1CCC[C@H]1C(=O)N1CCC[C@H]1C(=O)N1CCC[C@H]1C(=O)N[C@@H](CO)C(N)=O` (stereo partly shown) [Compound 2], for which the figures for the EC50 in data set [1], in data set [2] and in data set [3] were 0.0406 nM, 0.244 nM and 0.0181 nM, respectively. Moreover, in data set [4], the half-life (as a rule, how long it takes for the measured level to halve) is 108 h. The half-lives result in data set [4] is reported as “greater than 100 hours”.
`CC[C@H](C)[C@H](NC(=O)[C@H](Cc1ccccc1)NC(=O)[C@H](C)NC(=O)C(C)(C)NC(=O)[C@H](CCC(N)=O)NC(=O)[C@H](C)NC(=O)[C@H](CCCCNC(=O)COCCOCCNC(=O)CCC[C@H](NC(=O)CCCCCCCCCCCCCCCCCCC(=O)O)C(=O)O)NC(=O)[C@H](CCCCN)NC(=O)[C@H](CC(=O)O)NC(=O)[C@H](CC(C)C)NC(=O)C(C)(CC(C)C)NC(=O)[C@@H](NC(=O)[C@H](CO)NC(=O)[C@H](Cc1ccc(O)cc1)NC(=O)[C@H](CC(=O)O)NC(=O)[C@H](CO)NC(=O)[C@@H](NC(=O)C(C)(Cc1ccccc1F)NC(=O)[C@@H](NC(=O)CNC(=O)[C@H](CCC(N)=O)NC(=O)C(C)(C)NC(=O)[C@@H](N)Cc1ccc(O)cc1)[C@@H](C)O)[C@@H](C)O)[C@@H](C)CC)C(=O)N[C@@H](CCC(=O)O)C(=O)N[C@@H](Cc1ccc(O)cc1)C(=O)N[C@@H](CC(C)C)C(=O)N[C@@H](CC(C)C)C(=O)N[C@@H](CCC(=O)O)C(=O)NCCCCC(=O)N1CCC[C@H]1C(=O)N[C@@H](CO)C(=O)N[C@@H](CO)C(=O)NCC(=O)N[C@@H](C)C(=O)N1CCC[C@H]1C(=O)N1CCC[C@H]1C(=O)N1CCC[C@H]1C(=O)N[C@@H](CO)C(N)=O` (stereo partly shown) [Compound 6]: the EC50 (usually the concentration needed to bring the measured effect to its halfway point) in data set [1] turned out to be 0.0375 nM; in data set [2] it was 0.141 nM; in data set [3], 0.0188 nM. The same molecule showed a half-life in data set [4] of 115 h. Besides, the half-lives entry in data set [4] is given as “greater than 100 hours”.
`CC[C@H](C)[C@H](NC(=O)[C@H](Cc1ccccc1)NC(=O)[C@H](C)NC(=O)C(C)(C)NC(=O)[C@H](CCC(N)=O)NC(=O)[C@H](C)NC(=O)[C@H](CCCCNC(=O)COCCOCCNC(=O)COCCOCCNC(=O)CC[C@H](NC(=O)CCCCCCCCCCCCCCCCCCC(=O)O)C(=O)O)NC(=O)[C@H](CCCCN)NC(=O)[C@H](CC(=O)O)NC(=O)[C@H](CC(C)C)NC(=O)C(C)(CC(C)C)NC(=O)[C@@H](NC(=O)[C@H](CO)NC(=O)[C@H](Cc1ccc(O)cc1)NC(=O)[C@H](CC(=O)O)NC(=O)[C@H](CO)NC(=O)[C@@H](NC(=O)C(C)(Cc1ccccc1F)NC(=O)[C@@H](NC(=O)CNC(=O)[C@H](CCC(N)=O)NC(=O)C(C)(C)NC(=O)[C@@H](N)Cc1ccc(O)cc1)[C@@H](C)O)[C@@H](C)O)[C@@H](C)CC)C(=O)N[C@@H](CCC(=O)O)C(=O)N[C@@H](Cc1ccc(O)cc1)C(=O)N[C@@H](CC(C)C)C(=O)N[C@@H](CC(C)C)C(=O)N[C@@H](CCC(=O)O)C(=O)NCCCCC(=O)N1CCC[C@H]1C(=O)N[C@@H](CO)C(=O)N[C@@H](CO)C(=O)NCC(=O)N[C@@H](C)C(=O)N1CCC[C@H]1C(=O)N1CCC[C@H]1C(=O)N1CCC[C@H]1C(=O)N[C@@H](CO)C(N)=O` (stereo partly shown) [Compound 11]: the values for the EC50 in data set [1], in data set [2] and in data set [3] were 0.0487 nM, 0.174 nM and 0.0253 nM, respectively.
Turning to `CC[C@H](C)[C@H](NC(=O)[C@H](Cc1ccccc1)NC(=O)[C@H](C)NC(=O)C(C)(C)NC(=O)[C@H](CCC(N)=O)NC(=O)[C@H](C)NC(=O)[C@H](CCCCNC(=O)COCCOCCOCCOCCOCCNC(=O)CC[C@H](NC(=O)CCCCCCCCCCCCCCCCCCC(=O)O)C(=O)O)NC(=O)[C@H](CCCCN)NC(=O)[C@H](CC(=O)O)NC(=O)[C@H](CC(C)C)NC(=O)C(C)(CC(C)C)NC(=O)[C@@H](NC(=O)[C@H](CO)NC(=O)[C@H](Cc1ccc(O)cc1)NC(=O)[C@H](CC(=O)O)NC(=O)[C@H](CO)NC(=O)[C@@H](NC(=O)C(C)(Cc1ccccc1F)NC(=O)[C@@H](NC(=O)CNC(=O)[C@H](CCC(N)=O)NC(=O)C(C)(C)NC(=O)[C@@H](N)Cc1ccc(O)cc1)[C@@H](C)O)[C@@H](C)O)[C@@H](C)CC)C(=O)N[C@@H](CCC(=O)O)C(=O)N[C@@H](Cc1ccc(O)cc1)C(=O)N[C@@H](CC(C)C)C(=O)N[C@@H](CC(C)C)C(=O)N[C@@H](CCC(=O)O)C(=O)NCCCCC(=O)N1CCC[C@H]1C(=O)N[C@@H](CO)C(=O)N[C@@H](CO)C(=O)NCC(=O)N[C@@H](C)C(=O)N1CCC[C@H]1C(=O)N1CCC[C@H]1C(=O)N1CCC[C@H]1C(=O)N[C@@H](CO)C(N)=O` (stereo partly shown) [Compound 12], the EC50 in data set [1] was found to be 0.0469 nM; in data set [2] it was 0.165 nM; in data set [3], 0.0243 nM.
In the case of `CC[C@H](C)[C@H](NC(=O)[C@H](Cc1ccccc1)NC(=O)[C@H](C)NC(=O)C(C)(C)NC(=O)[C@H](CCC(N)=O)NC(=O)[C@H](C)NC(=O)[C@H](CCCCNC(=O)COCCOCCNC(=O)CC[C@H](NC(=O)CCCCCCCCCCCCCCCCCCC(=O)O)C(=O)O)NC(=O)[C@H](CCCCN)NC(=O)[C@H](CC(=O)O)NC(=O)[C@H](CC(C)C)NC(=O)[C@](C)(CC(C)C)NC(=O)[C@@H](NC(=O)[C@H](CO)NC(=O)[C@H](Cc1ccc(O)cc1)NC(=O)[C@H](CC(=O)O)NC(=O)[C@H](CO)NC(=O)[C@@H](NC(=O)[C@H](Cc1ccccc1)NC(=O)[C@@H](NC(=O)CNC(=O)[C@H](CCC(N)=O)NC(=O)C(C)(C)NC(=O)[C@@H](N)Cc1ccc(O)cc1)[C@@H](C)O)[C@@H](C)O)[C@@H](C)CC)C(=O)N[C@@H](CCC(=O)O)C(=O)N[C@@H](Cc1ccc(O)cc1)C(=O)N[C@@H](CC(C)C)C(=O)N[C@@H](CC(C)C)C(=O)N[C@@H](CCC(=O)O)C(=O)NCC(=O)NCC(=O)N1CCC[C@H]1C(=O)N[C@@H](CO)C(=O)N[C@@H](CO)C(=O)NCC(=O)N[C@@H](C)C(=O)N1CCC[C@H]1C(=O)N1CCC[C@H]1C(=O)N1CCC[C@H]1C(=O)N[C@@H](CO)C(N)=O` [retatrutide, Retatrutide, reference compound], the EC50 in data set [1] (CHO-K1 cell line stably expressing GLP-1R, cAMP, relative luminescence units, read-out: GLP-1 [EC50(pmol)]) is 0.046 nM; in data set [2] (CHO-K1 cell line stably expressing GCG-R, cAMP, relative luminescence units, read-out: GCG [EC50(pmol)]), 0.523 nM; in data set [3] (CHO-K1 cell line stably expressing GIPR, cAMP, relative luminescence units, read-out: GIP [EC50(pmol)]), 0.0342 nM.
